Laboratory results as given in patent publication US11160808B2, “Compounds that enhance Atoh1 expression” (Massachusetts Eye & Ear Infirmary, priority 2008, dated 2021).
pIC50: −log10 of the molar value. Read-outs that look alike come from different tables or passages of the source.

Columns and labels:
[1] = LD50 (median lethal dose) determination; format: cell-based
From the text: IC50 is a measure of the effectiveness of a compound in inhibiting biological or biochemical function. LD50 is the amount of a compound required to kill half the members of a tested population.

[2] = system: Math1 enhancer and minimal promoter Luciferase reporter in HEK cells; assay: Math1 Luciferase reporter assay in HEK cells; format: cell-based, human
From the text: A human embryonic kidney (HEK) cell line stably expressing a Luciferase gene controlled by an Math1 enhancer and minimal promoter was used in a high-throughput screen (HTS) of 144,000 small molecules to identify compounds that increase Math1 expression (i.e., transcription and/or translation). Such compounds can be used to increase the conversion of stem cells, progenitor cells, and support cells to or towards a hair cell. Screens to identify such compounds are described by Li et al., (U.S. Publication No. 2005/0287127) and Li et al., (U.S. application Ser. No. 11/953,797).
HEK cells stably expressing the Math1 Luciferase reporter were plated onto 384 well plates and cultured overnight in medium containing 10% fetal calf serum (FCS). Activation of the Math1 enhancer was measured by the increase in luminescence on a plate reader following addition of a luciferase detection agent. The assay was optimized for cell number, time of incubation, volume of medium, cell lysis reagent and luciferase reagent. Luminescence levels were compared in cells with the Math1-luciferase construct with and without retinoic acid (1 μM), and/or a luciferase construct with and without the Math1 enhancer and minimal promoter region.
To improve assay sensitivity, and reduce the coefficient of variation (CV), a more sensitive luciferase reagent (BriteLite luciferase reporter assay reagent, Perkin Elmer) was used, and Triton-X-100 was added to the lysis reagent to ensure complete lysis of the cells. Following these changes a CV of 4.2% was recorded. These conditions were used for all high-throughput screens. The luminescence threshold for a compound to be positive was defined as a 2-fold increase above the control (e.g., cells exposed to DMSO).
Cells were seeded on 384 well plates and allowed to attach overnight at 37° C. with 5% CO2 in the absence of growth factors. Math1 activation was measured by the increase in luminescence on a plate reader following addition of a luciferase detection reagent. Luminescence was assessed at 24, 48, and 72 hours. These conditions were used to screen 144,000 compounds contained in the small molecule libraries at Harvard University's Laboratory for Drug Discovery in Neurodegeneration (LDDN).
HTS were performed using HEK-Math1 cells seeded in 384 well plates. One compound was added per well using pin transfer. The final concentration of each compound was […]. Cell were incubated in the presence of a compound for 48 hours at 37° C. with 5% CO2. Cell lysates then were collected and bioluminescence determined. Luminescence values were compared normalized against DMSO.
About 20000 compounds were screened per week in 50 plates of 384 well with the aid of robotic systems (Beckman Biomek FX). Compounds were screened at an average final concentration of 0.7 μM (in 0.04% DMSO) with each plate containing 16 wells of 1 μM retinoic acid, as a positive control, and 16 wells of 0.04% DMSO, as a vehicle control. Percent activation of luminescence in the test compounds was determined for cells treated with the compounds against cells treated with DMSO.
Ten compounds, randomly selected from the group of 110 compounds identified in Example 2, were further evaluated, as follows. HEK cells were plated on 96 well plates at a density of 100000 cells per well. One day after plating, 0.1, 1, and 5 μM of each positive compound was added per well in a 10% fetal bovine serum (FBS) DMEM solution. Cells were then lysed 48 hours after addition of the compound and Math1 expression was analyzed using a luciferase reporter assay, as described above, and real-time PCR.
The half maximal inhibitory concentration (IC50) and median lethal dose or Lethal Dose, 50% (LD50) were determined for each of the compounds identified in Example 2 using standard laboratory techniques. IC50 is a measure of the effectiveness of a compound in inhibiting biological or biochemical function. LD50 is the amount of a compound required to kill half the members of a tested population.

[3] = Homo sapiens, HEK293; read-out: IC50
[4] = Homo sapiens, HEK293; read-out: Maximum (Fold DMSO)

| Structure (SMILES) | LD50 [1] | pIC50 [2, 3] | maximal fold induction [2, 4] | pIC50 ([2]; Homo sapiens, HEK293) | maximal fold induction ([2]; Homo sapiens, HEK293, read-out: Maximum (Fold DMSO)) | increase in luciferase activity ([2]; 1 μM, compared to non-treated cells) |
| --- | --- | --- | --- | --- | --- | --- |
| Cn1cc(Cl)c(C(=O)NCC(=O)c2ccccc2)n1 [CP-0070886, 4-chloro-1-methyl-N-(2-oxo-2-phenylethyl)-1H-pyrazole-3-carboxamide] | >10 µM | 6.00 | 2.1 |  |  |  |
| CNc1ccccc1C(=O)NCCc1ccccc1 [CP-0007991, 2-(methylamino)-N-phenethylbenzamide] | >10 µM | 6.22 | 2 |  |  |  |
| O=C(Nc1ccc(Cl)cn1)c1ccc(Br)cc1 [CP-0060729, 4-bromo-N-(5-chloropyridin-2-yl)benzamide] | >10 µM | 6.70 | 1.6 |  |  |  |
| O=C(Nc1ccccc1Cl)C(=O)c1c[nH]c2ccccc12 [CP-0078448, N-(2-chlorophenyl)-2-(1H-indol-3-yl)-2-oxoacetamide] | >10 µM | < 5.00 | 1.9 |  |  |  |
| c1ccc2sc(-c3cnc(N4CCOCC4)nc3)cc2c1 [CP-0059563, 4-(5-(benzo[b]thiophen-2-yl)pyrimidin-2-yl)morpholine] | >10 µM | < 5.00 | 1.9 |  |  |  |
| O=C(Nc1ccc(I)cc1)c1ccco1 [CP-0072253, N-(4-iodophenyl)furan-2-carboxamide] | >10 µM | 5.89 | 2 |  |  |  |
| O=c1ccc2ccc(OCc3ccc(F)cc3)cc2o1 [CP-0063508, 7-(4-fluorobenzyloxy)-2H-chromen-2-one] | >10 µM | < 5.00 | 1.7 |  |  |  |
| c1ccc(-c2cc3ccccc3[nH]2)nc1 [CP-0072096, 2-(pyridin-2-yl)-1H-indole] | >10 µM | 5.22 | 2.2 |  |  |  |
| Cc1cccc(-c2nc3cc(C)ccc3o2)c1 [CP-0103978, 5-methyl-2-m-tolylbenzo[d]oxazole] | >10 µM | 6.00 | 2 |  |  |  |
| COc1ccc(-c2csc(-c3c(C)noc3N)n2)cc1 [CP-0105343, 4-(4-(4-methoxyphenyl)thiazol-2-yl)-3-methylisoxazol-5-amine] | >10 µM | 5.52 | 2 |  |  |  |
| CC(=O)c1sc(-c2ccc(C(C)(C)C)cc2)cc1N [CP-0008545, 1-(3-amino-5-(4-tert-butylphenyl)thiophen-2-yl)ethanone] | >10 µM | 6.40 | 2.5 |  |  |  |
| Cc1ccc2nc(-c3cc4ccccc4oc3=N)[nH]c2c1 [CP-0091818, 3-(6-methyl-1H-benzo[d]imidazol-2-yl)-2H-chromen-2-imine] | >10 µM | 6.05 | 2.1 |  |  |  |
| Cc1oc(C(C)(C)C)cc1-c1cc(NC(=O)c2ccccc2)[nH]n1 [CP-0104765, N-(3-(5-tert-butyl-2-methylfuran-3-yl)-1H-pyrazol-5-yl)benzamide] | >10 µM | 6.40 | 2 |  |  |  |
| Cc1cc(C(=O)Nc2ccccc2)c(C)n1Cc1cccs1 [CP-0104766, 2,5-dimethyl-N-phenyl-1-(thiophen-2-ylmethyl)-1H-pyrrole-3-carboxamide] | >10 µM | 5.52 | 3 |  |  |  |
| COCCNc1ncc(-c2ccc(C)cc2)cn1 [CP-0059547, N-(2-methoxyethyl)-5-p-tolylpyrimidin-2-amine] | >10 µM | 6.00 | 2 |  |  |  |
| N#Cc1c(NC(=O)c2ccccc2F)sc2c1CCCC2 [CP-0060852, N-(3-cyano-4,5,6,7-tetrahydrobenzo[b]thio-phen-2-yl)-2-fluorobenzamide] | >10 µM | 5.60 | 1.8 |  |  |  |

| Structure (SMILES) | LD50 [1] | pIC50 [2, 3] | maximal fold induction [2, 4] | pIC50 ([2]; Homo sapiens, HEK293) | maximal fold induction ([2]; Homo sapiens, HEK293, read-out: Maximum (Fold DMSO)) | increase in luciferase activity ([2]; 1 μM, compared to non-treated cells) |
| --- | --- | --- | --- | --- | --- | --- |
| Cc1ccc(CSc2nc3ncccc3o2)cc1 [CP-0130586, 2-(4-methylbenzylthio) oxazolo[4,5-b]pyridine] | >10 µM | 6.30 | 2.2 |  |  |  |
| COc1ccc(-c2nc3ccc(Cl)cc3n2OCc2ccccc2Cl)cc1 [CP-0000550, 6-chloro-1-(2-chlorobenzyloxy)-2-(4-methoxyphenyl)-1H-benzo[d]imidazole] | >30 µM | 7.52 | 2 |  |  |  |
| Cc1ccc(-c2cnc3ccccc3n2)cc1C [CP-0045061, 2-(3,4-dimethylphenyl) quinoxaline] | >10 µM | 5.52 | 1.9 |  |  |  |
| COc1ccc(-c2nc3ccc(Cl)cc3n2OCc2cc(C)cc(C)c2)cc1 [CP-0000554, 6-chloro-1-(3,5-dimethylbenzyloxy)-2-(4-methoxyphenyl)-1H-benzo[d]imidazole] | >30 µM | 6.40 | 2 |  |  |  |
| Cc1ccc(-c2nc(-c3cccnc3)no2)c(Cl)c1 [CP-0068929, 5-(2-chloro-4-methylphenyl)-3-(pyridin-3-yl)-1,2,4-oxadiazole] | >10 µM | 6.40 | 2 |  |  |  |
| Brc1ccc(C2C=C(c3cccnc3)Nc3nc4ccccc4n32)cc1 (stereo not shown) [CP-0131763, 2-(3-pyridyl)-4-(4-bromophenyl)-1,4-dihydrobenzo[4,5]imi-dazo[1,2-a]pyrimidine] | >10 µM |  |  | 5.70 | 2.4 |  |
| Cc1ccccc1-c1nnc(-c2ccccc2)o1 [CP-0062030, 2-phenyl-5-o-tolyl-1,3,4-oxadiazole] | >10 µM | 5.70 | 1.6 |  |  |  |
| Nc1nn(-c2ncnc3c2[nH]c2ccccc23)cc1-c1ccc(Cl)cc1 [CP-0000477, 4-(4-chlorophenyl)-1-(5H-pyrimido[5,4-b]indol-4-yl)-1H-pyrazol-3-amine] | >30 µM | 5.70 | 2 |  |  |  |
| Cc1cccc(NC(=O)c2ccc3c(c2)OCCO3)n1 [CP-0029278, N-(6-methylpyridin-2-yl)-2,3-dihydrobenzo [b][1,4]dioxine-6-carboxamide] | >10 µM | 6.30 | 1.9 |  |  |  |
| CC(C)(C)c1ccc(C(=O)NCC2CCCO2)cc1 (stereo not shown) [CP-0061566, 4-tert-butyl-N-((tetrahydrofuran-2-yl)methyl)benzamide] | >10 µM | 6.70 | 2 |  |  |  |
| Fc1ccccc1-c1noc(NCCCN2CCCCC2)n1 [CP-0130665, 3-(2-fluorophenyl)-N-(3-(piperidin-1-yl)propyl)-1,2,4-oxadiazol-5-amine] | >10 µM | 6.52 | 2 |  |  |  |
| COc1ccc(C2=NN3C(C2)c2cccc(OC)c2OC32CCCCC2)cc1 (stereo not shown) [CP-0039073, 7-methoxy-2-(4-methoxyphenyl)-1,10b-dihydrospiro[benzo[e]pyra-zolo[1,5-c][1,3]oxazine-5,1′-cyclohexane]] | >10 µM | 5.82 | 2.4 |  |  |  |
| COc1ccc(-c2csc(Nc3ncccc3C)n2)cc1 [CP-0071862, 4-(4-methoxyphenyl)-N-(3-methylpyridin-2-yl)thiazol-2-amine] | >10 µM | 6.15 | 1.8 |  |  |  |
| Nc1nc(-c2ccc(-c3ccccc3)cc2)cs1 [CP-0072036, 4-(biphenyl-4-yl) thiazol-2-amine] | >10 µM | 5.82 | 1.7 |  |  |  |
| CC1=C(/C=C/C(C)=C/C=C/C(C)=C/C(=O)O)C(C)(C)CCC1 [retinoic acid, reference compound] |  |  |  |  |  | 1.8 fold |
